Entries after “also recorded” stand apart in the source; their conditions may differ.
Columns and labels:
HBL cells = experiment: MTT viability assay; assay type: cell-based, human; settings: 25 or 50 μM, 24 h
Method: The effect of the inhibitors on cell viability was evaluated by phase contrast microscopy and by means of the 3-(4,5-dimethyl-2-thiazolyl)-2,5-diphenyl-2H-tetrazolium bromide (MTT) assay. HBL cells were treated with the compounds (25 or 50 μM) for 24 h. At the end of the incubation period, phase contrast images were taken and the MTT assay was performed to test the cytotoxicity of each compound.
Figure 4 Effect of caffeic acid derivatives on the viability of HBL cells. Cells were incubated for 24 h with the inhibitors at 25 or 50 µM. (a) Phase contrast microscopy images. Representative images are shown (n = 8) Bar size: 50 μm. (b) MTT viability assay. Cells were grown in 96-well plates to ~80% confluence in the presence or absence of the indicated compounds. After 24 h, MTT was added (1 mg/mL final concentration) and maintained in the culture media for 4 h. Cells were PBS-washed twice and solubilized in DMSO. Absorbance at 562 nm was measured and represented as a percentage of the control value. The mean ± SEM of 8 independent experiments is shown. **** p < 0.0001.
Cell viability was measured by the MTT assay. HBL cells were seeded into the wells of a 96-wells plate at a density of 10,000 cells in 200 μL cell culture media. The seeded cells were incubated for 18 h at 37 °C, then treated with the compounds (25 or 50 μM) for 24 h or left untreated. At the end of the incubation period, images were taken and the MTT assay was performed to test the cytotoxicity of the different caffeic acid derivatives.

tyrosinase = experiment: Tyrosinase expression by Western blot (αPEP7), with or without NDP-MSH; assay type: cell-based, human
Method: Control HBL cells or cells grown in the presence of CAME (25 µM) or LCAME (25 or 50 µM) were stimulated for 48 h with a potent analogue of αMSH ([Nle^4,D-Phe^7]-α-MSH (NDP-MSH), 10^−7 M). Use of the 50 μM concentration of CAME was avoided since this concentration was somewhat cytotoxic as shown above. Expression of tyrosinase was then evaluated by Western blot using a specific antibody directed against tyrosinase (αPEP7). […] However, other mechanisms such as interference with activation and/or functional coupling of the melanocortin 1 receptor responsible for αMSH actions cannot be ruled out and a complete study of these possibilities is beyond the scope of this work. Accordingly, interference of LCAME with MITF expression or activity remains speculative at this stage. In any case, this preliminary observation deserves confirmation using cultured normal human melanocytes and further mechanistic analysis, as it may further support the potential use of LCAME as a skin depigmenting agent. Indeed, LCAME may act at two different levels, on one hand by inhibiting preexisting tyrosinase by a competitive mechanism, and on the other hand by interfering with αMSH-dependent induction of tyrosinase expression.
Figure 5 Effect on tyrosinase expression of CAME (25 µM) and LCAME (25 and 50 µM). HBL melanoma cells were incubated with or without the indicated compounds and stimulated with NDP-MSH (10^−7 M). After 48 h of treatment, tyrosinase levels were compared by Western blotting, performed as described in Materials and Methods. […] For each experimental condition, the fold-increase of tyrosinase abundance upon NDP-MSH treatment relative to the corresponding control was determined by densitometric analysis (ImageJ software) and is shown below the figure.
After protein separation by SDS-PAGE, they were transferred from the gel to the membrane and immunochemical detection with anti-PEP7 was performed as previously described. Briefly, the filters were blocked for 1 h in 2% bovine serum albumin in 1% Tween 20 PBS and incubated overnight at 4 °C with primary antibodies (1:4000 dilution). The filters were washed and further incubated with peroxidase-labeled mouse anti-rabbit IgG (1:5000 dilution). Staining and detection were done with ECL Plus Western Blotting Detection System chemiluminescent substrate (Thermo Fisher Scientific, Waltham, MA, USA). Images were acquired in a Fusion Solo.6S system (Vilber-Lourmat, Marne La Vallée, France). Signal intensities were estimated with ImageJ (National Institutes of Health, Bethesda, […], USA) in independent blots, and normalized with the corresponding loading controls (obtained by staining the membranes with an anti-ERK2 antibody).

human tyrosinase = system: T1, human tyrosinase; experiment: Substrate test with HBL cell lysates and MBTH (absorbance at 490 nm); assay type: biochemical; settings: different concentrations, over 1 h
T1 construct: The oxidation of L-DOPA by cell-free HBL cell extracts was monitored spectrophotometrically at 490 nm; endogenous in cells; host or cells: HBL human melanoma cells (detergent-solubilized cell extract)

SMILES: COC(=O)/C=C/c1ccc(O)c(O)c1SCCC(S)CCCCC(=O)O (stereo not shown) [LCAME, 2-S-lipoylcaffeic acid methyl ester]
- cytotoxicity (MTT) (HBL cells): nontoxic; also recorded: not cytotoxic
- NDP-MSH-mediated stimulation of tyrosinase expression (tyrosinase; 25 or 50 µM, NDP-MSH 10^−7 M, 48 h): apparently blocked
- basal tyrosinase expression (tyrosinase; HBL cells, CAME 25 µM or LCAME 25 or 50 µM, Western blot): No alteration; also recorded: No significant changes
- change in the absorbance at 490 nm (substrate of human tyrosinase) (human tyrosinase): did not induce any change

— PMC6121902, “Conjugation with Dihydrolipoic Acid Imparts Caffeic Acid Ester Potent Inhibitory Effect on Dopa Oxidase Activity of Human Tyrosinase” (International Journal of Molecular Sciences, 2018)
